A short description of data set [1]: Acute toxicity, intraperitoneal. It is filed as in vivo. As to conditions: 2 g/kg intraperitoneally, rats.
The subject of data set [2] is rat hypercalcemia induced by PTHrp(1-34). As to the kind of experiment: Rat hypercalcemia induced by PTHrp(1-34), intraperitoneal administration. It is filed as in vivo, male Wistar rats. As to conditions: 10 mg/kg intraperitoneal; for Ca conc. ± standard error: blood 1 hour after PTHrp, n = 5. On the procedure:
To male Wistar rats aged 5 weeks (70 - 90 g, 5 animals in each group), 10 mg/kg body weight of Compound 1 was intraperitoneally administered 0.5, 1, 2 and 4 hours before the administration of PTHrp(1-34). PTHrp(1-34) was intravenously injected into the animals at the level of 5 nmole/kg. One hour after the administration of PTHrp(1-34), a blood sample was collected from each animal and the blood calcium concentration was determined by the same method as the one employed in Example 1.

In data set [3] the test system is secondary hyperparathyroidism. As to the kind of experiment: Secondary hyperparathyroidism, calcium-deficient diet model. It is filed as in vivo, male Wistar rats. As to conditions: 40 mg/kg oral after 5 days calcium-deficient diet; blood 5 hours after administration. On the procedure:
In a calcium-deficient diet model system of rats, parathyroid hormone is released in order to maintain the blood calcium concentration within a normal range. In other words, the parathyroid hormone induces bone resorption so that the blood calcium concentration is maintained within a normal range.
Taking advantage of the above-mentioned model system, male Wistar rats aged 5 weeks (70 - 90 g, 5 animals in each group) were fed on calcium-deficient diet for 5 days. After fasting overnight, 40 mg/kg body weight of the compounds listed in Table 1 were orally administered to the rats. 5 hours after the administration of the drugs, the blood calcium concentration of each animal was determined by the same method as the one employed in Example 1.

Data set [4] deals with rat hypercalcemia induced by PTHrp(1-34). The data set is described as follows: Rat hypercalcemia induced by PTHrp(1-34), oral administration. It is filed as in vivo, male Wistar rats. As to conditions: 4 hours before PTHrp(1-34) 5 nmole/kg i.v., blood 1 hour after PTHrp, n = 5. On the procedure: To male Wistar rats aged 5 weeks (70 - 90 g, 5 animals in each group), 40 mg/kg body weight of the compounds listed in Table 2 and 40 and 80 mg/kg body weight of the compounds listed in Table 3 were orally administered. After 4 hours, 5 nmole/kg of PTHrp(1-34) was intravenously injected into the animals.
One hour after the administration of PTHrp(1-34), a blood sample was collected from each rat and the blood calcium concentration was determined by the octocresolphthalein complexone method.

Non-standard residues stand in square brackets, D forms with d. Residues, ends and D or L forms follow the SMILES beside them. *: point of attachment. Nle = CCCC[C@H](N)C(=O)O; Cbz = O=C(OCc1ccccc1)*

Regarding `CCCC[C@@H](C=O)NC(=O)[C@H](CC(C)C)NC(=O)OCc1ccccc1` [Compound 1, N-benzyloxycarbonyl-leucyl-norleucinal], in data set [1], the “acute toxicity (general conditions, mortality)” value is recorded as “neither any change in the general conditions of the animals nor any mortal case was observed”. Besides, the “suppression of the increase in the blood calcium concentration (result in words)” value in data set [2] (0.5 to 4 hours before PTHrp(1-34)) is “continuously effected significant suppression”. In addition, the “Ca conc. ± standard error” value in data set [2] (0.5 hr before PTHrp(1-34)) is 11.74 ± 0.07 mg/dL; in data set [2] (1 hr before PTHrp(1-34)), 11.28 ± 0.07 mg/dL; in data set [2] (2 hr before PTHrp(1-34)), 11.56 ± 0.09 mg/dL; in data set [2] (4 hr before PTHrp(1-34)), 11.91 ± 0.09 mg/dL. As for `CCCCC(C=O)NC(=O)C(CC(C)C)NC(=O)CCCc1ccccc1` (centres unmarked) [Compound 2], in data set [3], the “blood calcium concentration (result in words)” value is reported as “significantly reduced”. On to `CCCCC(C=O)NC(=O)C(CC(C)C)NC(=O)OC(C)(C)C` (centres unmarked) [Compound 6], for which the “blood calcium concentration (result in words)” value in data set [3] is given as “significantly reduced”. For `CCCCC(C=O)NC(=O)C(CC(C)C)NC(=O)OCc1ccc(Cl)cc1` (centres unmarked) [Compound 8], the “blood calcium concentration (result in words)” value in data set [3] is reported as “significantly reduced”.

With `CCCCC(C=O)NC(=O)C(CC(C)C)NC(=O)OCc1ccc(OC)cc1` (centres unmarked) [Compound 9], the “blood calcium concentration (result in words)” value in data set [3] is given as “significantly reduced”. Consider `CCCCC(C=O)NC(=O)C(CC(C)C)NC(=O)OCC(Cl)(Cl)Cl` (centres unmarked) [Compound 11], for which the “blood calcium concentration (result in words)” value in data set [3] is “significantly reduced”. The same measure, in the same setting: next, `CCCCC(C=O)NC(=O)C(CC(C)C)NP(=S)(c1ccccc1)c1ccccc1` (centres unmarked) [Compound 15]: “significantly reduced”. With `CSCC[C@@H](C=O)NC(=O)[C@H](CC(C)C)NC(=O)[C@H](CC(C)C)NC(C)=O` [Compound 21, N-Acetyl-leucyl-leucyl-methioninal] (Ac-Leu-Leu-Met-aldehyde), the “Ca conc. ± standard error” value in data set [4] (40 mg/kg oral) was 9.78 ± 0.08 mg/dL; in data set [4] (80 mg/kg oral) it was 9.61 ± 0.13 mg/dL. For `CCCC[C@@H](C=O)NC(=O)[C@H](CC(C)C)NC(=O)[C@H](CC(C)C)NC(C)=O` [Compound 22, N-Acetyl-leucyl-leucyl-norleucinal] (Ac-Leu-Leu-[Nle]-aldehyde), in that order: 9.49 ± 0.20 mg/dL and 9.52 ± 0.11 mg/dL.

As to `CCCC[C@@H](C=O)NC(=O)[C@H](CC(C)C)NC(=O)[C@H](CC(C)C)NC(=O)OCc1ccccc1` [Compound 23, N-Benzyloxycarbonyl-leucyl-leucyl-norleucinal] (Cbz-Leu-Leu-[Nle]-aldehyde), the “Ca conc. ± standard error” value is 9.53 ± 0.08 mg/dL in data set [4] (40 mg/kg oral) and 9.28 ± 0.66 mg/dL in data set [4] (80 mg/kg oral). For `CC(C)CC(NC(=O)C1OC1C(=O)O)C(=O)NCCCCNC(=N)N` [Compound E-64, L-trans-epoxysuccinyl-L-leucineamide-(e-guanide)-butane, reference compound], the results for the “Ca conc. ± standard error” value in data set [4] (40 mg/kg oral) and in data set [4] (80 mg/kg oral) were 9.69 ± 0.21 mg/dL and 9.61 ± 0.12 mg/dL, respectively.
